Results: patent publication US5541163A, “Renin inhibiting N-(2-amino-2-oxoethyl)butanediamide derivatives” (Bio-Mega/Boehringer Ingelheim Research Inc., priority 1993, dated 1996)

What follows are molecules tested against T1, human renin (Homo sapiens, UniProt P00797) (assay: Plasma renin assay (inhibition of human renin, angiotensin I by RIA)). Conditions: human plasma pool, pH 6.0, 2 h incubation at 37°.
T1 construct: A human plasma pool is used as the source of both the substrate (angiotensinogen) and the enzyme (renin); from tissue; host or cells: human plasma pool
T1 sequence (P00797 67-406): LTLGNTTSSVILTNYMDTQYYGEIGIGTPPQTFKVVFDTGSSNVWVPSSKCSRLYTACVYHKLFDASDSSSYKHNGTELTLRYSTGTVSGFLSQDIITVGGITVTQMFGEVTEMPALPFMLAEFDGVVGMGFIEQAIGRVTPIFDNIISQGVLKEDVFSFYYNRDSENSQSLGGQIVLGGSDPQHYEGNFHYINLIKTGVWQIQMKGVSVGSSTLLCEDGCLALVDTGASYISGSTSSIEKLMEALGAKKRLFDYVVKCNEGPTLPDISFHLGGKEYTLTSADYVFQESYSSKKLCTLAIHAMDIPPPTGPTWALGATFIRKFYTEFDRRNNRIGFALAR
Assay type: biochemical
Procedure: The assay is performed as follows: The test compound (i.e. the inhibitor) is dissolved in dimethylsulfoxide (1 mM stock solution) and diluted with an aqueous buffer solution of 270 mM 2-(N-morpholino)ethanesulfonic acid and 1% human serum albumin (pH 5.85, also containing dimercaprol and 8-hydroxyquinoline sulfate in accordance with the instructions of the RIA kit noted below) to give an assay mixture in which the final dimethylsulfoxide content is 1% (v/v).
A human plasma pool is used as the source of both the substrate (angiotensinogen) and the enzyme (renin). The reaction is initiated by the addition of 50 μL of human plasma pool to 50 μL of various concentrations of inhibitor in the 1% dimethylsulfoxide assay buffer. The plasma renin activity is measured by the amount of angiotensin I generated at pH 6.0 following a 2 h incubation at 37°.
Quantitation of angiotensin I is performed by radioimmunoassay (RIA kit from New England Nuclear-Dupont, Mississauga, ON, Canada). The enzymatic activity of renin is expressed in ng of angiotensin I generated (/mL/2 h). The extent of inhibition of the reaction is determined from the amount of angiotensin I generated in reference to a control prepared without inhibitor. Nonlinear regression analysis is used to calculate the IC50 values, i.e. the molar concentration of the test compound required to cause a 50% inhibition of the enzyme activity.

SMILES	IC50 [nM]
CC(C)C[C@H](O)[C@H](O)[C@H](CC1CCCCC1)NC(=O)[C@@H](CC(=O)N(CC(=O)N(C)C)C[C@@H](C)c1ccccc1)Cc1nccs1 [Compound 40, N^4-[2-(dimethylamino)-2-oxoethyl]-N^4-[2 (S)-phenylpropyl]-N^1-[1(S)-(cyclohexylmethyl)-2(R),3(S)-dihydroxy-5-methylhexyl]-2(S)-(2-thiazolylmethyl)butanediamide]	6.7
CC(C)C[C@H](O)[C@H](O)[C@H](CC1CCCCC1)NC(=O)[C@@H](CC(=O)N(CC(=O)N(C)CCc1ccccn1)Cc1ccccc1)Cc1nccs1 [Compound 41, N^4-benzyl-N^4 -{2-{methyl[2-(2-pyridinyl)ethyl]amino}-2-oxoethyl}-N^1-[1(S)-(cyclohexylmethyl)-2(R),3(S)-dihydroxy-5-methylhexyl]-2(S)-(2-thiazolylmethyl)butanediamide]	3.5
C[C@@H](c1ccccc1)N(CC(=O)N(C)C)C(=O)C[C@@H](CC1CC1)C(=O)N[C@@H](CC1CCCCC1)[C@@H](O)[C@@H]1CC(C)(C)N(C)C1=O [Compound 42, N^4-[2-(dimethylamino)-2-oxoethyl]-N^4-[1(S)-phenylethyl]-N^1-[1(S)-(cyclohexylmethyl)-2(S)-hydroxy-2-(1,5,5-trimethyl-2-oxopyrrolidin-3(S)-yl)ethyl]-2(R)-(cyclopropylmethyl)butanediamide]	55
C[C@@H](c1ccccc1)N(CC(=O)N(C)C)C(=O)C[C@@H](Cc1csc(N)n1)C(=O)N[C@@H](CC1CCCCC1)[C@@H](O)[C@@H](O)C1CC1 [Compound 43, N^4-[2-(dimethylamino)-2-oxoethyl]-N^4-[1(S)-phenylethyl]-N^1-[1(S)-(cyclohexylmethyl)-2(R),3(S)-dihydroxy-(3-cyclopropylpropyl)]-2(R)-[(2-amino-4-thiazolyl)methyl]-butanediamide]	6.8
C[C@@H](c1ccccc1)N(CC(=O)N(C)C)C(=O)C[C@@H](Cc1csc(N)n1)C(=O)N[C@@H](CC1CCCCC1)[C@@H](O)[C@@H]1CC(C)(C)N(C)C1=O [Compound 44, N^4-[2-(dimethylamino)-2-oxoethyl]-N^4-[1(S)-phenylethyl]-N^1-[1(S)-(cyclohexylmethyl)-2(S)-hydroxy-2-(1,5,,5-trimethyl-2-oxopyrrolidin-3(S)-yl)ethyl]-2(R)-[(2-amino-4-thiazolyl)methyl]butanediamide]	2.4
CC(C)OC(=O)[C@H](O)[C@H](CC1CCCCC1)NC(=O)[C@@H](CC(=O)N(CC(=O)N(C)C)[C@@H](C)c1ccccc1)Cc1csc(N)n1 [Compound 45, N^4-[2-(dimethylamino)-2-oxoethyl]-N^4-[1(S)-phenylethyl]-N^4-[1(S)-(cyclohexylmethyl)-2(R)-hydroxy-3-(1-methylethoxy)-3-oxopropyl]-2(R)-[(2-amino-4-thiazolyl)methyl]-butanediamide]	16
CC(C)C[C@H](O)[C@H](O)[C@H](CC1CCCCC1)NC(=O)[C@@H](CC(=O)N(CC(=O)N(C)CCc1ccccn1)CC1CCCCC1)CC1CC1 [Compound 46, N^4-(cyclohexylmethyl)-N^4 -{2-{methyl-[2-(2-pyridinyl)-ethyl]amino}-2-oxoethyl}-N^1-[1(S)-(cyclohexylmethyl)-2(R),3(S)-dihydroxy-5-methylhexyl]-2(R)-(cyclopropylmethyl)butanediamide]	12
Cc1nc(C[C@H](CC(=O)N(CC(=O)N(C)C)CC2CCCCC2)C(=O)N[C@@H](CC2CCCCC2)[C@@H](O)[C@@H](O)CC(C)C)cs1 [Compound 47, N^4-(cyclohexylmethyl)-N^4-[2-(dimethylamino)-2-oxoethyl]-N^1-[1(S)-(cyclohexylmethyl)-2(R),3(S)-dihydroxy-5-methylhexyl]-2(R)-[(2-methyl-4-thiazolyl)methyl]butanediamide]	18.5
